In patent publication US12065430B2, “Indazole compound or salt thereof” (TAIHO PHARMACEUTICAL CO., LTD., priority 2018, dated 2024):

target: G12C K-Ras4B (1-169) (Homo sapiens (Human), UniProt P01116, G12C); test: Test of compounds on whether to bind to KRASG12C (LC-MS compound binding rate); conditions: final compound concentration of 2 μM, 1 μM protein, 25° C. for 2 hours
Procedure, shortened: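 K-Ras4B (1-169) WT and G12C (1 μM each, mixed) in 1×TBS, 0.1 mM TCEP incubated with compound (final 2 μM) 2 h at 25° C; quenched with 0.2% formic acid. Intact-protein LC-MS (ESI+, deconvoluted); binding rate = adduct signal/(adduct + unbound signal), giving selectivity over WT.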

| Compound | binding rate for G12C K-Ras4B (1-169) |
| --- | --- |
| C=CC(=O)N1CC(NC(=O)c2c(Cl)nc(CNc3n[nH]c4cc(Cl)c(C(C)(C)C)cc34)n2[C@@H]2CCN(CCOC)C2)C1 [Example 119, (R)—N-(1-acryloylazetidin-3-yl)-2-(((5-(tert-butyl)-6-chloro-1H-indazol-3-yl)amino)methyl)-4-chloro-1-(1-(2-methoxyethyl)pyrrolidin-3-yl)-1H-imidazole-5-carboxamide] | B (a binding rate of 60% or more and less than 80% is rated “B,”) |
| C=CC(=O)N1CC(NC(=O)c2c(C(F)(F)F)nc(CNc3n[nH]c4cc(Cl)c(C(C)(C)C)cc34)n2C)C1 [Example 25, N-(1-acryloylazetidin-3-yl)-2-(((5-(tert-butyl)-6-chloro-1H-indazol-3-yl)amino)methyl)-1-methyl-4-(trifluoromethyl)-1H-imidazole-5-carboxamide] | A (a binding rate of 80% or more is rated “A,”) |
| C=CC(=O)N1CCC(NC(=O)c2c(C)nc(CNc3n[nH]c4cc(Cl)c(C(C)(C)C)cc34)n2C)C1 (stereo not shown) [Example 48, N-(1-acryloylpyrrolidin-3-yl)-2-(((5-(tert-butyl)-6-chloro-1H-indazol-3-yl)amino)methyl)-1,4-dimethyl-1H-imidazole-5-carboxamide] | B (a binding rate of 60% or more and less than 80% is rated “B,”) |
| C=CC(=O)N(C)C1CN(C(=O)c2c(C)nc(CNc3n[nH]c4cc(Cl)c(C(C)(C)C)cc34)n2C)C1 [Example 51, N-(1-(2-(((5-(tert-butyl)-6-chloro-1H-indazol-3-yl)amino)methyl)-1,4-dimethyl-1H-imidazole-5-carbonyl)azetidin-3-yl)-N-methylacrylamide] | B (a binding rate of 60% or more and less than 80% is rated “B,”) |
| C=CC(=O)N1C[C@@H](NC(=O)c2c(C)nc(CNc3n[nH]c4cc(Cl)c(C(C)(C)C)cc34)n2C)[C@@H]1C (relative stereo) [Example 59, N-(trans-1-acryloyl-2-methylazetidin-3-yl)-2-(((5-(tert-butyl)-6-chloro-1H-indazol-3-yl)amino)methyl)-1,4-dimethyl-1H-imidazole-5-carboxamide] | B (a binding rate of 60% or more and less than 80% is rated “B,”) |
| C=CC(=O)N1CC(NC(=O)c2c(Cl)nc(CNc3n[nH]c4cc(Cl)c(C(C)(C)C)cc34)n2C2CN(C(C)=O)C2)C1 [Example 108, 1-(1-acetylazetidin-3-yl)-N-(1-acryloylazetidin-3-yl)-2-(((5-(tert-butyl)-6-chloro-1H-indazol-3-yl)amino)methyl)-4-chloro-1H-imidazole-5-carboxamide] | A (a binding rate of 80% or more is rated “A,”) |
| C=CC(=O)N1CC(NC(=O)c2c(Cl)nc(CNc3n[nH]c4cc(Cl)c(C(C)(C)C)cc34)n2[C@@H]2C[C@@H](O)[C@@H](O)C2)C1 [Example 99] | A (a binding rate of 80% or more is rated “A,”) |
| C=CC(=O)N1CC(NC(=O)c2c(Cl)nc(CNc3n[nH]c4cc(Cl)c(C(C)(C)C)cc34)n2[C@H]2C[C@H](C)CC[C@H]2C(C)C)C1 [Example 111, N-(1-acryloylazetidin-3-yl)-2-(((5-(tert-butyl)-6-chloro-1H-indazol-3-yl)amino)methyl)-4-chloro-1-((1S,2S,5R)-2-isopropyl-5-methylcyclohexyl)-1H-imidazole-5-carboxamide] | B (a binding rate of 60% or more and less than 80% is rated “B,”) |
| C=CC(=O)N1C[C@H](NC(=O)c2c(C)nc(CNc3n[nH]c4cc(Cl)c(C(C)(C)C)cc34)n2C)C2(CC2)C1 [Example 54, (R)—N-(5-acryloyl-5-azaspiro[2.4]heptan-7-yl)-2-(((5-(tert-butyl)-6-chloro-1H-indazol-3-yl)amino)methyl)-1,4-dimethyl-1H-imidazole-5-carboxamide] | B (a binding rate of 60% or more and less than 80% is rated “B,”) |
| C=CC(=O)N1CC(NC(=O)c2c(I)nc(CNc3n[nH]c4cc(Cl)c(C(C)(C)C)cc34)n2C)C1 [Example 26, N-(1-acryloylazetidin-3-yl)-2-(((5-(tert-butyl)-6-chloro-1H-indazol-3-yl)amino)methyl)-4-iodo-1-methyl-1H-imidazole-5-carboxamide] | A (a binding rate of 80% or more is rated “A,”) |
| C=CC(=O)N1CC(NC(=O)c2c(Cl)nc(CNc3n[nH]c4cc(Cl)c(C(C)C)cc34)n2C(C)C)C1 [Example 45, N-(1-acryloylazetidin-3-yl)-4-chloro-2-(((6-chloro-5-isopropyl-1H-indazol-3-yl)amino)methyl)-1-isopropyl-1H-imidazole-5-carboxamide] | A (a binding rate of 80% or more is rated “A,”) |
| C=CC(=O)N1CC(NC(=O)c2c(Cl)nc(CNc3n[nH]c4cc(Cl)c(C(C)(C)C)cc34)n2CC(F)F)C1 [Example 100, N-(1-acryloylazetidin-3-yl)-2-(((5-(tert-butyl)-6-chloro-1H-indazol-3-yl)amino)methyl)-4-chloro-1-(2,2-difluoroethyl)-1H-imidazole-5-carboxamide] | A (a binding rate of 80% or more is rated “A,”) |
| [2H]C([2H])(Nc1n[nH]c2cc(Cl)c(C(C)(C)C)cc12)c1nc(C(F)F)c(C(=O)NC2CN(C(=O)C=C)C2)n1C(C)C [Example 36, N-(1-acryloylazetidin-3-yl)-2-(((5-(tert-butyl)-6-chloro-1H-indazol-3-yl)amino)methyl-d2)-4-(difluoromethyl)-1-isopropyl-1H-imidazole-5-carboxamide] | B (a binding rate of 60% or more and less than 80% is rated “B,”) |
| C=CC(=O)N1CC(NC(=O)c2c(Cl)nc(CNc3n[nH]c4cc(Cl)c(C(C)(C)C)cc34)n2CCOC)C1 [Example 90, N-(1-acryloylazetidin-3-yl)-2-(((5-(tert-butyl)-6-chloro-1H-indazol-3-yl)amino)methyl)-4-chloro-1-(2-methoxyethyl)-1H-imidazole-5-carboxamide] | A (a binding rate of 80% or more is rated “A,”) |
| C=CC(=O)N1CC(NC(=O)c2c(C(F)F)nc(CNc3n[nH]c4cc(Cl)c(C(C)(C)C)cc34)n2C2CCN(CC)C2)C1 (stereo not shown) [Example 92, N-(1-acryloylazetidin-3-yl)-2-(((5-(tert-butyl)-6-chloro-1H-indazol-3-yl)amino)methyl)-4-(difluoromethyl)-1-(1-ethylpyrrolidin-3-yl)-1H-imidazole-5-carboxamide] | B (a binding rate of 60% or more and less than 80% is rated “B,”) |
| C=CC(=O)N1CC(NC(=O)c2c(C)nc(CNc3n[nH]c4cc(Cl)c(C(C)(C)C)cc34)n2C(F)F)C1 [Example 21, N-(1-acryloylazetidin-3-yl)-2-(((5-(tert-butyl)-6-chloro-1H-indazol-3-yl)amino)methyl)-1-(difluoromethyl)-4-methyl-1H-imidazole-5-carboxamide] | B (a binding rate of 60% or more and less than 80% is rated “B,”) |
| C=CC(=O)N1CC(NC(=O)c2c(Cl)nc(CNc3n[nH]c4cc(Cl)c(C(C)(C)C)cc34)n2[C@@H]2CCN(CC(F)F)[C@H]2C)C1 [Example 125, N-(1-acryloylazetidin-3-yl)-2-(((5-(tert-butyl)-6-chloro-1H-indazol-3-yl)amino)methyl)-4-chloro-1-((2S,3R)-1-(2,2-difluoroethyl)-2-methylpyrrolidin-3-yl)-1H-imidazole-5-carboxamide] | A (a binding rate of 80% or more is rated “A,”) |
| C=CC(=O)N1CC(NC(=O)c2c(Cl)nc(CNc3n[nH]c4cc(Cl)c(C(C)(C)C)cc34)n2C2CCCN(CC(F)F)C2)C1 (stereo not shown) [Example 117, N-(1-acryloylazetidin-3-yl)-2-(((5-(tert-butyl)-6-chloro-1H-indazol-3-yl)amino)methyl)-4-chloro-1-(1-(2,2-difluoroethyl)piperidin-3-yl)-1H-imidazole-5-carboxamide] | A (a binding rate of 80% or more is rated “A,”) |
| C=CC(=O)N1CC(NC(=O)c2c(C)nc(CNc3n[nH]c4cc(Cl)c(C(C)(C)C)cc34)n2C2CCCC2)C1 [Example 17, N-(1-acryloylazetidin-3-yl)-2-(((5-(tert-butyl)-6-chloro-1H-indazol-3-yl)amino)methyl)-1-cyclopentyl-4-methyl-1H-imidazole-5-carboxamide] | B (a binding rate of 60% or more and less than 80% is rated “B,”) |
| C=CC(=O)N1C[C@H](NC(=O)c2c(C)nc(CNc3n[nH]c4cc(Cl)c(C(C)(C)C)cc34)n2C)[C@@H](C)C1 [Example 60, N-((3R,4S)-1-acryloyl-4-methylpyrrolidin-3-yl)-2-(((5-(tert-butyl)-6-chloro-1H-indazol-3-yl)amino)methyl)-1,4-dimethyl-1H-imidazole-5-carboxamide] | C (a binding rate of 40% or more and less than 60% is rated “C,”) |
| C=CC(=O)N1C[C@H](NC(=O)c2c(C)nc(CNc3n[nH]c4cc(Cl)c(C(C)(C)C)cc34)n2C)[C@@H](O)C1 [Example 62, N-((3S,4S)-1-acryloyl-4-hydroxypyrrolidin-3-yl)-2-(((5-(tert-butyl)-6-chloro-1H-indazol-3-yl)amino)methyl)-1,4-dimethyl-1H-imidazole-5-carboxamide] | A (a binding rate of 80% or more is rated “A,”) |
| C=CC(=O)N1CCN(C(=O)c2c(C)nc(CNc3n[nH]c4cc(Cl)c(C(C)(C)C)cc34)n2C)CC1 [Example 50, 1-(4-(2-(((5-(Tert-butyl)-6-chloro-1H-indazol-3-yl)amino)methyl)-1,4-dimethyl-1H-imidazole-5-carbonyl)piperazin-1-yl)prop-2-en-1-one] | C (a binding rate of 40% or more and less than 60% is rated “C,”) |
